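GI50: concentration for 50% inhibition of growth. At the TGI there is no net growth.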
Columns and labels:
Assay in all cases: NCI anticancer screen, dose series, 384-well format
[1] = test system: UACC-62 melanoma
[2] = test system: 786-0 renal
[3] = test system: UACC-257 melanoma
[4] = test system: CCRF-CEM leukemia
[5] = test system: RXF 393 renal
[6] = test system: HOP-92 NSCLC
[7] = test system: NCI-H522 lung
[8] = test system: IGROV1 ovarian
[9] = test system: NCI-H322M lung
[10] = test system: OVCAR-4 ovarian
[11] = test system: HCT-15 colon
[12] = test system: K-562 leukemia
[13] = test system: NCI-H23 lung
[14] = test system: SK-OV-3 ovarian
[15] = test system: U251 glioblastoma
[16] = test system: T-47D breast
[17] = test system: DU-145 prostate
[18] = test system: OVCAR-8 ovarian
[19] = test system: SF-295 CNS
[20] = test system: HCC-2998 colon
[21] = test system: COLO 205 colon
[22] = test system: HCT-116 colon
[23] = test system: ACHN renal
[24] = test system: SW-620 colon
[25] = test system: MALME-3M melanoma
[26] = test system: MOLT-4 leukemia
[27] = test system: SK-MEL-2 melanoma
[28] = test system: HT29 colon
[29] = test system: PC-3 prostate
[30] = test system: NCI-H460 NSCLC
[31] = test system: CAKI-1 renal
[32] = test system: MDA-MB-468 breast
[33] = test system: HOP-62 NSCLC
[34] = test system: SF-268 CNS
[35] = test system: MDA-MB-231 breast
[36] = test system: SN12C renal
[37] = test system: NCI/ADR-RES ovarian
[38] = test system: SK-MEL-28 melanoma
[39] = test system: M14 melanoma
[40] = test system: UO-31 renal
[41] = test system: OVCAR-3 ovarian
[42] = test system: A549 NSCLC
[43] = test system: KM12 colon
[44] = test system: NCI-H226 lung
[45] = test system: HL-60(TB) leukemia
[46] = test system: OVCAR-5 ovarian
[47] = test system: MCF7 breast
[48] = test system: SK-MEL-5 melanoma
[49] = test system: SR leukemia
[50] = test system: A498 renal
[51] = test system: BT-549 breast
[52] = test system: LOX IMVI melanoma
[53] = test system: RPMI-8226 leukemia
[54] = test system: MDA-MB-435 melanoma
[55] = test system: TK-10 renal
[56] = test system: SF-539 CNS

Work on `CS[C@@]1(C(=O)Nc2ccc3[nH]nc(-c4ccc(OC(C)C)nc4)c3c2)CCN(CC(=O)N2CC=C(c3ccc(-c4ncn(C)n4)cc3)CC2)C1` yielded a GI50 [1] of 11 nM, a TGI [1] of 215 nM and a GI50 [2] of 1770 nM. The TGI [2] was over 100000 nM, the GI50 [3] was 16.7 nM and the TGI [3] was 97.6 nM. It also gave a GI50 [4] of 5120 nM, a TGI [4] of over 100000 nM and a GI50 [5] of 354 nM. The TGI [5] was 2200 nM, the GI50 [6] was 189 nM and the TGI [6] was 631 nM. The GI50 [7] was 7970 nM, the TGI [7] was over 100000 nM and the GI50 [8] was 514 nM. It also gave a TGI [8] of over 100000 nM, a GI50 [9] of 438 nM and a TGI [9] of over 100000 nM. It also gave a GI50 [10] of 1800 nM, a TGI [10] of over 100000 nM and a GI50 [11] of 2820 nM. The TGI [11] was over 100000 nM, the GI50 [12] was 819 nM and the TGI [12] was over 100000 nM. It also gave a GI50 [13] of 17.1 nM, a TGI [13] of 136 nM and a GI50 [14] of 17200 nM. It also gave a TGI [14] of over 100000 nM, a GI50 [15] of 1530 nM and a TGI [15] of over 100000 nM. For the same molecule, the GI50 [16] was 5690 nM, the TGI [16] was over 100000 nM and the GI50 [17] was 61600 nM. The TGI [17] was over 100000 nM, the GI50 [18] was 5370 nM and the TGI [18] was over 100000 nM. It also gave a GI50 [19] of 12800 nM, a TGI [19] of over 100000 nM and a GI50 [20] of 24.2 nM. The TGI [20] was 222 nM, the GI50 [21] was 20 nM and the TGI [21] was 194 nM. It also gave a GI50 [22] of 122 nM, a TGI [22] of 2390 nM and a GI50 [23] of 2250 nM. The TGI [23] was over 100000 nM, the GI50 [24] was 112 nM and the TGI [24] was over 100000 nM. For the same molecule, the TGI [25] was 22.1 nM, the GI50 [26] was 2560 nM and the TGI [26] was 8650 nM. For the same molecule, the GI50 [27] was 38.6 nM, the TGI [27] was 207 nM and the GI50 [28] was 43.1 nM. It also gave a TGI [28] of over 100000 nM, a GI50 [29] of 18800 nM and a TGI [29] of over 100000 nM. The GI50 [30] was 884 nM, the TGI [30] was over 100000 nM and the GI50 [31] was 273 nM. The TGI [31] was over 100000 nM, the GI50 [32] was 907 nM and the TGI [32] was 7330 nM. It also gave a GI50 [33] of 476 nM, a TGI [33] of over 100000 nM and a GI50 [34] of over 100000 nM. It also gave a TGI [34] of over 100000 nM, a GI50 [35] of 373 nM and a TGI [35] of 34300 nM. It also gave a GI50 [36] of 3370 nM, a TGI [36] of over 100000 nM and a GI50 [37] of 3770 nM. For the same molecule, the TGI [37] was over 100000 nM, the TGI [38] was 58.3 nM and the GI50 [39] was 12.5 nM. It also gave a TGI [39] of 109 nM, a GI50 [40] of 810 nM and a TGI [40] of over 100000 nM. For the same molecule, the GI50 [41] was 5370 nM, the TGI [41] was over 100000 nM and the GI50 [42] was 302 nM. It also gave a TGI [42] of over 100000 nM, a GI50 [43] of 297 nM and a TGI [43] of over 100000 nM. The GI50 [44] was 595 nM, the TGI [44] was 21600 nM and the GI50 [45] was 43.7 nM. For the same molecule, the TGI [45] was 1350 nM, the GI50 [46] was 108 nM and the TGI [46] was over 100000 nM. The GI50 [47] was over 100000 nM, the TGI [47] was over 100000 nM and the GI50 [48] was 58.9 nM. The TGI [48] was 1730 nM, the GI50 [49] was 375 nM and the TGI [49] was 4000 nM. The GI50 [50] was 2520 nM, the TGI [50] was over 100000 nM and the GI50 [51] was 2030 nM. It also gave a TGI [51] of over 100000 nM, a GI50 [52] of 90.4 nM and a TGI [52] of 267 nM. The GI50 [53] was 536 nM, the TGI [53] was 2440 nM and the GI50 [54] was 96.3 nM. It also gave a TGI [54] of over 100000 nM, a GI50 [55] of 561 nM and a TGI [55] of over 100000 nM. It also gave a GI50 [56] of 1360 nM and a TGI [56] of 47800 nM.
